Tests used:
[1] = biological target: T1, G protein-coupled receptor kinase 3 (Homo sapiens) (UniProt P35626); conditions: Compound concentration 1000.0 nM
T1 sequence (whole entry): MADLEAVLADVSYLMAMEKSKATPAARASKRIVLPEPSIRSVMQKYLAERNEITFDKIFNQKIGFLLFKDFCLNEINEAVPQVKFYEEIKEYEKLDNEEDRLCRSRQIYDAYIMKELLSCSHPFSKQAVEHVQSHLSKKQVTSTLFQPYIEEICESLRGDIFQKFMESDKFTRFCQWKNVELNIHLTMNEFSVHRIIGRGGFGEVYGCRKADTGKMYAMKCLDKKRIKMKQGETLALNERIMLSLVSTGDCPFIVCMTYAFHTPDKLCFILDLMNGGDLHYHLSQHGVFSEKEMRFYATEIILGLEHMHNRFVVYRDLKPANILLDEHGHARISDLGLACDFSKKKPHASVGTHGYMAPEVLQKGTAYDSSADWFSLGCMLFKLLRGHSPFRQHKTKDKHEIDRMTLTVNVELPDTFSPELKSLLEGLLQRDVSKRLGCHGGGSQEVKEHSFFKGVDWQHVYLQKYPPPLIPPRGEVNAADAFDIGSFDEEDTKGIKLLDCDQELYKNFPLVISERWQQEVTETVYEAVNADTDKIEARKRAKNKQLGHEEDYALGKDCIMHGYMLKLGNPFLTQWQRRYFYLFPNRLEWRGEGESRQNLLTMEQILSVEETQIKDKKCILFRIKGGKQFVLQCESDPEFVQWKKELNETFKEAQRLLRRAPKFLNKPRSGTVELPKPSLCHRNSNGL

[2] = biological target: Serine/threonine-protein kinase B-raf (Homo sapiens) (UniProt P15056); conditions: Compound concentration 1000.0 nM
[3] = biological target: Ribosomal protein S6 kinase alpha-1 (Homo sapiens, UniProt Q15418); conditions: Compound concentration 1000.0 nM
[4] = biological target: Uncharacterized serine/threonine-protein kinase SBK3 (Homo sapiens) (UniProt P0C264); conditions: Compound concentration 1000.0 nM
Uncharacterized serine/threonine-protein kinase SBK3 (Homo sapiens), sequence (P0C264 whole entry): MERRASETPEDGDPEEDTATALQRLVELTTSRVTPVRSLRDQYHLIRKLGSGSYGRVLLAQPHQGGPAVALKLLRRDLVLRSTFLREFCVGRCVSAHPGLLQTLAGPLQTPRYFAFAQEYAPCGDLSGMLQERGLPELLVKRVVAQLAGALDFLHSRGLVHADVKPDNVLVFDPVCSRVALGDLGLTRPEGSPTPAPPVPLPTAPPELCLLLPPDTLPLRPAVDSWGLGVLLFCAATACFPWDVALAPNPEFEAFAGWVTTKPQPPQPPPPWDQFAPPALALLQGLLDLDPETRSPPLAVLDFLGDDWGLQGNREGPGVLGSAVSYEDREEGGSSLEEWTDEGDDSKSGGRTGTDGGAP

[5] = biological target: Receptor-interacting serine/threonine-protein kinase 2 (Homo sapiens) (UniProt O43353); conditions: Compound concentration 1000.0 nM
Receptor-interacting serine/threonine-protein kinase 2 (Homo sapiens), sequence (O43353 whole entry): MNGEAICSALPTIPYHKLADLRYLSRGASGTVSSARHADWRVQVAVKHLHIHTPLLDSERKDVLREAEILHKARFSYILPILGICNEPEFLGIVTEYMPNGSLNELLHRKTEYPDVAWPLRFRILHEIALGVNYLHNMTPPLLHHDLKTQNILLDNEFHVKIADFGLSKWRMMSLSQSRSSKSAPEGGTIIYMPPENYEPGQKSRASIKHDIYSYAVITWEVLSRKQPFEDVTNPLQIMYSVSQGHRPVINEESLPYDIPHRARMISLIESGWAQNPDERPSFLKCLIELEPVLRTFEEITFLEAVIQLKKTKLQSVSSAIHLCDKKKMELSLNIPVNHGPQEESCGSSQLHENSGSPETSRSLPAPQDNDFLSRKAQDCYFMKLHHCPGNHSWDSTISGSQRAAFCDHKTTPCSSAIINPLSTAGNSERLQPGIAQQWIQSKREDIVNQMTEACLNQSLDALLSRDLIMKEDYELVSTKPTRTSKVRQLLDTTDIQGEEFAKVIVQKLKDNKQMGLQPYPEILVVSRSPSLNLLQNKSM

[6] = biological target: Ribosomal protein S6 kinase alpha-5 (Homo sapiens, UniProt O75582); conditions: Compound concentration 1000.0 nM
Ribosomal protein S6 kinase alpha-5, sequence (O75582 whole entry, looked up): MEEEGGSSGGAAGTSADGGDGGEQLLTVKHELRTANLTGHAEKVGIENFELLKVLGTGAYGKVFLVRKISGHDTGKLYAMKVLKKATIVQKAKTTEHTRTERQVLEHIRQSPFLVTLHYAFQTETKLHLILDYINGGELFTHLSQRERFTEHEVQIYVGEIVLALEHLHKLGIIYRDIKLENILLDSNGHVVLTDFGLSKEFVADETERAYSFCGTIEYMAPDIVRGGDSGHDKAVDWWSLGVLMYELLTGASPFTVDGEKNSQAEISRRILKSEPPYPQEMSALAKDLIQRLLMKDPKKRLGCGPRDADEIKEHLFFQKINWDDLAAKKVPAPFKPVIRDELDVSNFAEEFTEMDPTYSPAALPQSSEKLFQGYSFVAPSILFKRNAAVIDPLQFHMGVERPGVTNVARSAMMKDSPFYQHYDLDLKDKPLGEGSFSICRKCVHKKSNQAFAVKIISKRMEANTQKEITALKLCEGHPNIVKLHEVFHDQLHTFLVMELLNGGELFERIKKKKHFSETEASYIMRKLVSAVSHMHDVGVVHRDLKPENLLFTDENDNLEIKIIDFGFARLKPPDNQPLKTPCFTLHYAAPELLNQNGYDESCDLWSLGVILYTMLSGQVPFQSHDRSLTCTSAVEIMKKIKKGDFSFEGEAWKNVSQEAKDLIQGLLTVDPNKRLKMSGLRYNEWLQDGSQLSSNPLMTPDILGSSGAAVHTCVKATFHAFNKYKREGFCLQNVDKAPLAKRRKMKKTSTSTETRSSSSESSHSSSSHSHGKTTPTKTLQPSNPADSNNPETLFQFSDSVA

[7] = biological target: Microtubule-associated serine/threonine-protein kinase 1 (Homo sapiens) (UniProt Q9Y2H9); conditions: Compound concentration 1000.0 nM
[8] = tested on: Phosphatidylinositol 4,5-bisphosphate 3-kinase catalytic subunit alpha isoform (Homo sapiens), P42336 [C420R]; conditions: Compound concentration 1000.0 nM
Phosphatidylinositol 4,5-bisphosphate 3-kinase catalytic subunit alpha isoform (Homo sapiens), P42336 [C420R], sequence (P42336 whole entry C420R, canonical isoform): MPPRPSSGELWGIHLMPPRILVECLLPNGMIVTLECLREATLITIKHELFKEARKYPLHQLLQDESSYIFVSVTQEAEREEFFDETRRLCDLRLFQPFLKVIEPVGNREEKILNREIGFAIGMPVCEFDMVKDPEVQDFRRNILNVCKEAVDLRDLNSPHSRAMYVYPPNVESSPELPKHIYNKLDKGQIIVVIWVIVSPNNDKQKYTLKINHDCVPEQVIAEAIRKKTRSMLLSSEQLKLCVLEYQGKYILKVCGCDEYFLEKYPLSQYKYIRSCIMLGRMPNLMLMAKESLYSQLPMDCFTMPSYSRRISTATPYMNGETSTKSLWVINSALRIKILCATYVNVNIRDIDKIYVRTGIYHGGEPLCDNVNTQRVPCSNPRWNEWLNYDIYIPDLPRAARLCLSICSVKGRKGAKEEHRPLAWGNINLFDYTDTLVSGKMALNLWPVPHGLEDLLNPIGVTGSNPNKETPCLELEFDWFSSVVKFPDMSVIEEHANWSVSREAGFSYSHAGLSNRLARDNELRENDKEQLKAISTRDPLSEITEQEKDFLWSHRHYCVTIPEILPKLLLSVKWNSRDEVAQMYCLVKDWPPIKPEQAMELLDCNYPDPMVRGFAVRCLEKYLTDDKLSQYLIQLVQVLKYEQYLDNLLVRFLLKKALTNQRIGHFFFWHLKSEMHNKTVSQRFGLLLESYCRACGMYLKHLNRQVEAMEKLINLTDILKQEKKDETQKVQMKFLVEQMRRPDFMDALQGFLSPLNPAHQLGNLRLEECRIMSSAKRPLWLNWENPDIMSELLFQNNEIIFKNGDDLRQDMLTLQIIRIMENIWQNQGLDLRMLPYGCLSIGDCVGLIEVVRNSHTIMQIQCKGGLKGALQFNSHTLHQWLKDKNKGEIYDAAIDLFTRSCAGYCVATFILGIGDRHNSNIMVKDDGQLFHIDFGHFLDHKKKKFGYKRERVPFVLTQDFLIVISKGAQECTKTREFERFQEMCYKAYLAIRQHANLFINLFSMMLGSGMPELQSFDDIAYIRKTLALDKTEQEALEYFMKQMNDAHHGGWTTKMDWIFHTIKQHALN

[9] = biological target: Mitogen-activated protein kinase 9 (Homo sapiens) (UniProt P45984); conditions: Compound concentration 1000.0 nM
Mitogen-activated protein kinase 9 (Homo sapiens), sequence (P45984 whole entry, looked up): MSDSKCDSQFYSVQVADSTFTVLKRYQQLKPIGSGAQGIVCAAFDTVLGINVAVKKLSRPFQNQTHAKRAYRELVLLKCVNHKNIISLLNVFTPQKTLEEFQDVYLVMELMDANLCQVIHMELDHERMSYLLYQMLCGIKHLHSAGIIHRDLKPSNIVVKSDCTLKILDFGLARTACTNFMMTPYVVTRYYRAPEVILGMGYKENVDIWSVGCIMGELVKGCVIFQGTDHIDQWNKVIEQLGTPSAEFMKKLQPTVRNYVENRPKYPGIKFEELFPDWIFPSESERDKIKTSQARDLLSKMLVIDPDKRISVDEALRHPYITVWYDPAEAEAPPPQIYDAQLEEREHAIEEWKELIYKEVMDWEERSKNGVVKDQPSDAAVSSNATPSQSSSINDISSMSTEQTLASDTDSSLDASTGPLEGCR

[10] = biological target: Delta-type opioid receptor (Homo sapiens) (UniProt P41143); conditions: Compound concentration 10.0 uM
Delta-type opioid receptor (Homo sapiens), sequence (P41143 whole entry): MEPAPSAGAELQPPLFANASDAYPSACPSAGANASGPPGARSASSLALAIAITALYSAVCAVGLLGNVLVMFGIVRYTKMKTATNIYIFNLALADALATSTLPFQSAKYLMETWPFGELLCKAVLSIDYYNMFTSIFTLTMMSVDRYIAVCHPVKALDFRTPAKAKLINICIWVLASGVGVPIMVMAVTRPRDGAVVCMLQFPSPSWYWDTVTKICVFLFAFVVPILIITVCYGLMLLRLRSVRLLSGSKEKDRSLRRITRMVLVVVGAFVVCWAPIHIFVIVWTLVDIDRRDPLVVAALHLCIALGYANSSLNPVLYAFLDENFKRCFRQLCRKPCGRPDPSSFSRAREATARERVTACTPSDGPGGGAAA

[11] = biological target: Cyclin-dependent kinase 17 (Homo sapiens) (UniProt Q00537); conditions: Compound concentration 1000.0 nM
[12] = biological target: 5'-AMP-activated protein kinase catalytic subunit alpha-1 (Homo sapiens, UniProt Q13131); test: Cellular mechanistic pACC assay using IMR-32 neuroblastoma cells; type: cell-based
5'-AMP-activated protein kinase catalytic subunit alpha-1, sequence (Q13131 whole entry): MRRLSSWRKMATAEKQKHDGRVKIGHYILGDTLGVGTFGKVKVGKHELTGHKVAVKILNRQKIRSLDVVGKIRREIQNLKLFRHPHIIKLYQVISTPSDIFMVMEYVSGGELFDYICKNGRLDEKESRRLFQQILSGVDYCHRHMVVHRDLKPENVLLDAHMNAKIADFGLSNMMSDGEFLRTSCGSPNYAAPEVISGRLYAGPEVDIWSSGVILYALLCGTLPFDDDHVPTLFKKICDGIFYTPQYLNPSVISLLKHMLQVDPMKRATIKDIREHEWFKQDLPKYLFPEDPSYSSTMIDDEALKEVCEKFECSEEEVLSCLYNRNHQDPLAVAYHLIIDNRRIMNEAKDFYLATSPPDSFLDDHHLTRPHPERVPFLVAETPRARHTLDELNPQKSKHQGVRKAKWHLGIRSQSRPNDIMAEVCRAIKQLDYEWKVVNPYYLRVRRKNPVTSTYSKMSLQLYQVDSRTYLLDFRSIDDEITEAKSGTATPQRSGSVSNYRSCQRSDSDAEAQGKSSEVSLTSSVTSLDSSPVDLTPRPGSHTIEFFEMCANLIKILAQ

[13] = biological target: T2, Myotonin-protein kinase (Homo sapiens) (UniProt Q09013); conditions: Compound concentration 1000.0 nM
T2 sequence (whole entry): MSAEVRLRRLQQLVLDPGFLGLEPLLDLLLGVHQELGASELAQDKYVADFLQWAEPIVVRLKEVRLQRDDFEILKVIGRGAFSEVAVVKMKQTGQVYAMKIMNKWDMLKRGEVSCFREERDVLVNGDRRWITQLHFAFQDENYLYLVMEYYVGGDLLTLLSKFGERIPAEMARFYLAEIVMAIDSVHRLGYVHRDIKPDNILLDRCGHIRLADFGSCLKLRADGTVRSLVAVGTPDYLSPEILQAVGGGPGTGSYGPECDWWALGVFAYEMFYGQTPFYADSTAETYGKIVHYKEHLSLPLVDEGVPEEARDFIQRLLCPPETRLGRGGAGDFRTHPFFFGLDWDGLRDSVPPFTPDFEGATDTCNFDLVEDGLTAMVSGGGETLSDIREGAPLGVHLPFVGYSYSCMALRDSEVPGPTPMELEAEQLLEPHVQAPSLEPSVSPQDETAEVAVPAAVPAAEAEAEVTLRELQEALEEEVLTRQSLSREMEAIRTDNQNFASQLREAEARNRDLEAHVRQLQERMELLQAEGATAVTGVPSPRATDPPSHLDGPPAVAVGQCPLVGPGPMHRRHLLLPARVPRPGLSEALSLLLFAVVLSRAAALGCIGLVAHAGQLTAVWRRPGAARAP

[14] = biological target: Mu-type opioid receptor (Homo sapiens) (UniProt P35372); conditions: Compound concentration 10.0 uM
[15] = biological target: Serine/threonine-protein kinase SIK1 (Homo sapiens) (UniProt P57059); conditions: Compound concentration 1000.0 nM
Serine/threonine-protein kinase SIK1 (Homo sapiens), sequence (P57059 whole entry): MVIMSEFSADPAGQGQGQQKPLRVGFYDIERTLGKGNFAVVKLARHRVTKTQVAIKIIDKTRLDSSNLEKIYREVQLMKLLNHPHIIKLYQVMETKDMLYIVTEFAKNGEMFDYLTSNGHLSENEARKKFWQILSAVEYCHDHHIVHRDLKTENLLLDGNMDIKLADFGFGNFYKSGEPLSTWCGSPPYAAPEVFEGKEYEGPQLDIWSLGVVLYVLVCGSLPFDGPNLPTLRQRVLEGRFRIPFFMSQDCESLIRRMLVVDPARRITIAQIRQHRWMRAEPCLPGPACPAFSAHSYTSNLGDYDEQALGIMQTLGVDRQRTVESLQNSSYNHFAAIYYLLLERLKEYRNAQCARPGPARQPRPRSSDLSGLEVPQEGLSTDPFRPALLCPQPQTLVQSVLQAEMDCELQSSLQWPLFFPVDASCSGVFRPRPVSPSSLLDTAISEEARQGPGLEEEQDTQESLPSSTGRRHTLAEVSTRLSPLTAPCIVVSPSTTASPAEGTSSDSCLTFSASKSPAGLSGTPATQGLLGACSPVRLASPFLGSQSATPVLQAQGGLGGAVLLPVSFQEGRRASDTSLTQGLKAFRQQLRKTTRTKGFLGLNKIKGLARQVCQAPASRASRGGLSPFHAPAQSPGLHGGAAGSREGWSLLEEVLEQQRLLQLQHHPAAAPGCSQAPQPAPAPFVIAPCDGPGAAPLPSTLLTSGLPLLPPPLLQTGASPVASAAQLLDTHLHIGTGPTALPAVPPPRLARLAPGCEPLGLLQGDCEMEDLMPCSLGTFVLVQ

| Structure (SMILES) | residual activity [1] [%] | residual activity [2] [%] | residual activity [3] [%] | residual activity [4] [%] | residual activity [5] [%] | residual activity [6] [%] | residual activity [7] [%] | residual activity [8] [%] | residual activity [9] [%] | inhibition [10] [%] | residual activity [11] [%] | IC50 [12] | residual activity [13] [%] | inhibition [14] [%] | residual activity [15] [%] |
| --- | --- | --- | --- | --- | --- | --- | --- | --- | --- | --- | --- | --- | --- | --- | --- |
| CCc1ccccc1C(=O)Nc1n[nH]c2c(C)c(F)c(C3C(C#N)=C(C)N(C)C(C)=C3C#N)cc12 [BAY-3827] | 100 | 78 | 100 | 73 | 100 | 1 | 100 | 100 | 67 | 20.5 | 93 | 0.15 µM | 100 | 30.5 | 66 |
| CC1=C(C#N)C(c2ccc3c(c2)c(NC(=O)c2ccccc2C)nn3C)C(C#N)=C(C)N1 [BAY-974] | 93 | 47 | 100 | 100 | 100 | 91 | 92 | 74 | 73 | 17.7 | 100 | > 30 µM (not active) | 99 | 13.7 | 88 |
